Measured values as given in US20250066816A1, “ELECTROPORATION ENHANCERS FOR CRISPR-CAS SYSTEMS” (SIGMA-ALDRICH CO. LLC, priority 2021, published 2025).

Test system: human HEK293 cells
Assay: High fidelity SpCas9 RNP nucleofection, HEKSite4 target site, HEK293 cells, editing frequency by NGS
Format: cell-based
Conditions: at least one of the three dosages tested (Table 10), FIG. 6
Experimental: A high fidelity SpCas9 protein (Catalog No. CAS9 Plus) and a synthetic single guide RNA (sgRNA) with the spacer sequence of 5′-[…]-3′ (SEQ ID NO: 46) targeting the human HEKSite4 locus were purchased from MilliporeSigma. Pentosan polysulfate sodium salt with a formula of (C5H6Na2O10S2)n was purchased from Selleckchem (Catalog No. S3500). A pentosan polysulfate solution was prepared by dissolving the chemical in water at 50 mg/ml. The molecular structural unit of the polyanionic polymer is as follows: […]
Genomic DNA extracts from transfected cells were prepared using QuickExtract Solution. Targeted genomic region was PCR amplified with NGS primers using JumpStart™ Taq ReadyMix™ for Quantitative PCR Kit (MilliporeSigma) with the following cycling condition: 98° C./2 m; 98° C./15 s, 62° C./30 s, and 72° C./45 s for 34 cycles; 72° C./5 m.
Primary PCR products were then reamplified with Illumina index primers using JumpStart™ Taq ReadyMix™ for Quantitative PCR Kit (MilliporeSigma) with the following cycling condition: 95° C./3 m; 95° C./30 s, 55° C./30 s, and 72° C./30 s for 8 cycles; 72° C./5 m. Indexed PCR products were purified with Select-a-Size DNA Clean & Concentrator kit (Zymo) and quantified by PicoGreen (ThermoFisher). […] The FASTQ files for each sample were analyzed for genome editing frequency. […]

How did the “level of editing efficiency versus the control buffer” value turn out when Collagen from rat tail was run?
The value was “significantly higher”.
